Data as given in ChEMBL document CHEMBL1201862, “PubChem BioAssay data set” (2004).
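Test compounds were applied to cells in 96-well plates for 48 hours at 5 doses. GI50 is the concentration that inhibits growth by half.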 Calls of active or inactive are those of the source. No stated cut-off is given here; in the data, active = GI50 up to about 1.1 µM and inactive = higher.

Columns and labels:
Test in all cases: DTP human tumour cell line panel, 48 h
HT-29 = test system: HT-29
IGROV-1 = test system: IGROV-1
MOLT-4 = test system: MOLT-4
NCI-H23 = test system: NCI-H23
OVCAR-3 = test system: OVCAR-3
NCI-H460 = test system: NCI-H460
Malme-3M = test system: Malme-3M
RXF 631 = test system: RXF 631
786-0 = test system: 786-0
NCI-H226 = test system: NCI-H226
SNB-19 = test system: SNB-19
OVCAR-4 = test system: OVCAR-4
A549 = test system: A549
KM12 = test system: KM12
A498 = test system: A498
UO-31 = test system: UO-31
UACC-62 = test system: UACC-62
DMS-114 = test system: DMS-114
SF-295 = test system: SF-295
COLO 205 = test system: COLO 205
M14 = test system: M14
HCT-15 = test system: HCT-15
CAKI-1 = test system: CAKI-1
NCI-H522 = test system: NCI-H522
SK-OV-3 = test system: SK-OV-3
LXFL 529 = test system: LXFL 529
LOX IMVI = test system: LOX IMVI
HCT-116 = test system: HCT-116
SNB-75 = test system: SNB-75
SF-539 = test system: SF-539
KM-20L2 = test system: KM-20L2
HOP-18 = test system: HOP-18
SR = test system: SR
SNB-78 = test system: SNB-78
SF-268 = test system: SF-268
CCRF-CEM = test system: CCRF-CEM
K562 = test system: K562
OVCAR-8 = test system: OVCAR-8
OVCAR-5 = test system: OVCAR-5
RXF 393 = test system: RXF 393
UACC-257 = test system: UACC-257
SK-MEL-2 = test system: SK-MEL-2
ACHN = test system: ACHN
RPMI-8226 = test system: RPMI-8226
SW-620 = test system: SW-620
SN12C = test system: SN12C
TK-10 = test system: TK-10
HCC 2998 = test system: HCC 2998
DMS-273 = test system: DMS-273
HOP-92 = test system: HOP-92
M19-MEL = test system: M19-MEL
HL-60 = test system: HL-60
HOP-62 = test system: HOP-62
SK-MEL-5 = test system: SK-MEL-5
U-251 = test system: U-251
XF498 = test system: XF498
DLD-1 = test system: DLD-1
SK-MEL-28 = test system: SK-MEL-28

Measured: GI50

CCCC(=O)OC[n+]1ccc2c(C)c3[nH]c4ccccc4c3c(C)c2c1
inactive: HT-29 > 100000 nM | OVCAR-3 1200 nM | Malme-3M 1330 nM | A498 1340 nM | UO-31 1870 nM | UACC-62 1500 nM | M14 1120 nM | CAKI-1 1290 nM | SNB-75 > 100000 nM | CCRF-CEM 1660 nM | UACC-257 1350 nM | SK-MEL-2 1510 nM | TK-10 1710 nM | HOP-92 1320 nM | M19-MEL > 100000 nM | HL-60 1680 nM | SK-MEL-5 1540 nM
274 nM: HCT-15
active: IGROV-1 510 nM | MOLT-4 66.1 nM | NCI-H23 64 nM | NCI-H460 20.8 nM | RXF 631 378 nM | 786-0 305 nM | NCI-H226 1110 nM | SNB-19 935 nM | OVCAR-4 706 nM | A549 317 nM | KM12 377 nM | DMS-114 641 nM | SF-295 430 nM | COLO 205 705 nM | NCI-H522 832 nM | SK-OV-3 547 nM | LXFL 529 570 nM | LOX IMVI 341 nM | HCT-116 118 nM | SF-539 519 nM | KM-20L2 478 nM | HOP-18 1090 nM | SR 68.1 nM | SNB-78 1100 nM | SF-268 661 nM | K562 466 nM | OVCAR-8 394 nM | OVCAR-5 1040 nM | RXF 393 67 nM | ACHN 504 nM | RPMI-8226 37.4 nM | SW-620 215 nM | SN12C 404 nM | HCC 2998 611 nM | DMS-273 101 nM | HOP-62 914 nM | U-251 498 nM

O=C(COc1ccc(Cl)cc1)N1N=C(c2ccc([N+](=O)[O-])o2)CC1(O)c1ccccc1 (stereo unspecified)
inactive: HT-29 4810 nM | IGROV-1 6240 nM | MOLT-4 3420 nM | NCI-H23 2030 nM | OVCAR-3 3770 nM | NCI-H460 11100 nM | Malme-3M 10400 nM | RXF 631 7870 nM | 786-0 7620 nM | NCI-H226 28200 nM | SNB-19 11900 nM | OVCAR-4 7110 nM | A549 10000 nM | KM12 6580 nM | UO-31 11400 nM | UACC-62 3870 nM | SF-295 10700 nM | XF498 10500 nM | COLO 205 3520 nM | M14 11800 nM | CAKI-1 17400 nM | NCI-H522 15500 nM | SK-OV-3 19300 nM | LOX IMVI 10800 nM | HCT-116 5270 nM | SNB-75 > 10000 nM | SF-539 13100 nM | KM-20L2 12300 nM | SR 2590 nM | DLD-1 4660 nM | SNB-78 13800 nM | SF-268 10500 nM | K562 3720 nM | OVCAR-8 5620 nM | OVCAR-5 15800 nM | UACC-257 4050 nM | SK-MEL-2 7240 nM | ACHN 6030 nM | RPMI-8226 2280 nM | SW-620 4710 nM | SN12C 4440 nM | TK-10 8630 nM | SK-MEL-28 12200 nM | HCC 2998 4110 nM | DMS-273 5280 nM | HOP-92 20200 nM | M19-MEL 2440 nM | HL-60 1770 nM | HOP-62 20000 nM | U-251 4940 nM
3050 nM: HCT-15
